Reference: patent US20120277265A1, “NOVEL POLYQUINOLINE DERIVATIVES AND THE THERAPEUTIC USE THEREOF” (CENTRE NATIONAL DE LA RECHERCHE SCIENTIFIQUE (C.N.R.S.), priority 2005, published 2012)

Assays:
[1] = Number of ZnCl2 equivalents for the ligand to be entirely in the form of Zn(II) complex; type: binding; conditions: competition with the tris buffer and the DMSO
[2] = Stability constants of competing chelators for Zn(II) (NIST / Sillen-Martell; log Kapp by Eq. 1-2); conditions: for log Kapp of comparison chelators for Zn(II): comparison chelators of b563
Excerpt: log Kapp=log K-log α (Eq. 1)
α=[H^+]^n/(Ka1×Ka2×Ka3× . . . Kan)+[H^+]^n-1/(Ka1×Ka2×Ka3× . . . Kan-1)+ . . . +[H^+]/Ka1+1 (Eq. 2)

Aβ1-42 = molecular target: T1, Aβ1-42 (Homo sapiens, UniProt P05067); test: Inhibition of the precipitation of Aβ1-42 by the addition of ligand (Micro BCA assay of soluble/aggregated peptide); type: biochemical; conditions: Aβ1-42 5 μM, pH 7.4; for CuCl2 % soluble Aβ: 20 μM CuCl2, 1 h 37° C. then 1 h with 200 μM ligand; for FeCl3 % soluble Aβ: 20 μM FeCl3, 1 h 37° C. then 1 h with 200 μM ligand; for ZnCl2 % soluble Aβ: 20 μM ZnCl2, 1 h 37° C. then 1 h with 200 μM ligand; for without metal % soluble Aβ: no metal salt, 1 h 37° C. then 1 h with 200 μM ligand
T1 construct: The β-amyloid peptide Aβ1-42 (Aβ1-42) was synthesised, purified (to a purity greater than 95%); made in house; host or cells: chemical peptide synthesis (no expression host)
Procedure: After a further hour of incubation, the reaction mixture is centrifuged.
Before use, the water [of Milli-Q Millipore quality] and all buffer solutions were treated on Chelex-100 resin (Biorad) (5 mg/ml) and filtered through 0.2 μm filters (Whatman) to remove potential traces of metal ions or particles.
Working solutions of the peptide were prepared by solubilising 1 mg of lyophilised peptide in 500 μl of water and 500 μl of an aqueous NaOH solution pH=12.0, while stirring in a Thermomixer Comfort (Eppendorf). The peptide preparations are subsequently centrifuged for 10 minutes at 9,000 rpm and the supernatant is used as an “Aβ stock” solution. The concentration of peptide in the “Aβ stock” is determined immediately by colorimetric assay using a Micro BCA Protein Assays kit (Pierce) from standard ranges produced using known amounts of bovine serum albumin (BSA) then the Aβ1-42 peptide solution is aliquoted and frozen rapidly in liquid nitrogen prior to being stored at −20° C. until being used.
Salts are generated by adding one hydrochloric acid equivalent per nitrogen group equivalent of the ligand dissolved in DMSO. After evaporation of the solvent, these salts are dissolved at the desired concentration with DMSO and kept at −20° C. until they are used.
The protocol was established from works by: C. S. Atwood et al., J. Neurochem. […] The final concentrations are given. 500 μl of Aβ1-42 (5 μM is set to aggregate in 20 mM Tris-HCl buffer containing 150 mM NaCl (pH=7.4) for 1 hour at 37° C. while stirring at 1,400 rpm in the absence or presence of metal ions: CuCl2, ZnCl2 or FeCl3 (20 μM). Then 50 pi of ligand to be tested (200 μM) dissolved in DMSO are added and the samples are incubated for 1 further hour at 37° C. while stirring at 1,400 rpm. The samples without ligand also receive 50 μl of DMSO. The samples (final volume=550 μ) are subsequently centrifuged for 20 min at 9,000 rpm, and 500 μl of supernatant are removed. The tube containing the precipitation pellet then receives 450 μl of assay buffer/DMSO mixture (91/9, v/v). […] Quantification is carried out on the basis of standard BSA ranges. The amounts of Aβ1-42 actually contained in the pellet and the supernatant are obtained after a correction due to the presence of a residual portion of supernatant in the pellet-containing fraction.
For the control experiments with derivatives comprising a single quinoline residue, […] of ligand were added because complexes of type L2Cu are conventionally used in these cases.

[3] = Competition reaction between ligand (Ls), CuCl2 and competing chelator (Lc), UV-visible; affinity constants
Procedure: An organic solvent (CH3OH, dioxane or DMSO) was added in order to achieve good solubility of all the ligands and metal complexes in the concentrations used in these experiments. Monitoring has shown that all the ligands and metal complexes examined yield results corresponding to the Beer-Lambert Law in the experimental conditions used.
Lc competing chelators were selected to provide a range of stability constants for the metal ion M presenting intervals of approximately one or two log units, as well as to make it possible for each competition experiment to quantify one of the Ls, MLs, Lcc or MLc species with a UV-vis spectrum wavelength without contaminating the three other species (FIG. 7). […] As the concentration [MLs]=x % of C is measured on the UV-visible spectra, the concentrations [Ls]=(1−x) % of C, [MLc]=(1−x) % of C and [Lc]=x % of C can be deduced therefrom and:

[4] = UV-visible spectrophotometric titration with ZnCl2 (metal/ligand stoichiometry); type: binding; conditions: 15 μM ligand; Tris-HCl buffer pH 7.4/organic solvent, per ligand as in Table 3 column Solvent
Procedure: (§1) An organic solvent (CH3OH, dioxane or DMSO) was added in order to achieve good solubility of the ligands and metal complexes in the concentrations used in these experiments. Exact proportions of the organic solvent/buffer mixture are specified for each UV-visible characterisation of the different ligands or metal complexes.
(§2) Aliquot portions of concentrated CuCl2 or ZnCl2 solutions (M) are added to a 15 μM ligand solution so as to induce only negligible variations in volume. After each addition, changes in absorption spectra are observed immediately and are consistent between two additions, which corresponds to a rapid complexing process. The exact absorption values relating to each ligand and the copper(II) or zinc(II) complexes thereof are detailed hereinafter in the Experimental part (in the Synthesis part for ligands and hereinafter for the metal complexes).
(§3) The stoichiometry of the different ligands (L) for Cu(II) or ZN(II) have therefore been determined spectrophotometrically by metal ion titration. In this example, for an M/L ratio increasing from 0 to 1, π→π* with transition, centred at 251 nm for the free ligand, is shifted to a lower energy with a concomitant appearance of an absorption band in the visible region of the spectrum (λmax to 383 nm), which is probably the result of an MLCT transition. For greater M/L ratios, no additional change in the UV-visible absorption spectra is observed.

[5] = UV-visible spectrophotometric titration with CuCl2 (metal/ligand stoichiometry); type: binding; conditions: 15 μM ligand; Tris-HCl buffer pH 7.4/organic solvent, per ligand as in Table 3 column Solvent
Procedure: as §1, §2, §3

[6] = Hydrogen peroxide produced by Aβ1-42 in the presence of CuCl2, ascorbate, air and ligand (Amplex Red H2O2/HRP); type: biochemical; conditions: ligand 1 eq/Cu(II) (0.4 μM); CuCl2 0.4 μM, ascorbate 10 μM, air
Procedure: (§4) FIG. 11: Variation in H2O2 production by copper complexes of Aβ1-42 peptide as a function of the Cu(II)/Aβ stoichiometry. Experiments are carried out for 5 minutes in a sodium phosphate buffer (pH=7.4) in the presence 0.4 μM CuCl2, 10 μM ascorbate and air with or without 0.4 μM of 3 or 7. The H2O2 released is quantified by means of an Amplex-Red H2O2/HRP Assay kit.
(§5) The final concentrations are given. The reactions were carried out in the dark in mM sodium phosphate buffer (pH=7.4). Aβ1-42 (0.2 μM) and CuCl2 (0.4 μM) were pre-incubated for 1 hour at 37° C. while stirring at 1,400 rpm in 375 μl of buffer. Then 2 μl of a solution of ligand to be investigated (0.2; 0.4 or 0.8 μM) in DMSO were added. After incubation for a further hour, 2 μl of an aqueous sodium ascorbate solution (10 μM) were added and incubation was continued for 5 min while stirring. The amount of H2O2 produced is then quantified using an Amplex Red H2O2/HRP Assay Kit (Molecular Probes) while adding a volume of assay reagent to the samples, then incubating them for 1 hour at 37° C. while stirring at 500 rpm. […] Quantification is carried out on the basis of standard curves obtained with known amounts of H2O2.
(§6) The figures in the tables correspond to the amount of H2O2 (expressed in nanomoles) added using an Amplex Red H2O2/HRP Assay kit.

[7] = molecular target: T2, copper complexes of Aβ1-42 peptide (Homo sapiens, UniProt P05067); test: as above; type: biochemical; conditions: for amount of H2O2, 0.2 μM Aβ1-42 Cu/Aβ = 2 / amount of H2O2, 0.5 μM Aβ1-42 Cu/Aβ = 0.75: ligand 1 eq/Cu(II) (0.4 μM), CuCl2 0.4 μM, ascorbate 10 μM, air
T2 construct: The β-amyloid peptide Aβ1-42 (Aβ1-42) was synthesised, purified (to a purity greater than 95%); made in house; host or cells: chemical peptide synthesis (no expression host)
Procedure: as §4, §5, §6

[8] = Determination of log D7.4 (1-octanol / Tris-HCl buffer); type: physicochemical; conditions: 1-octanol / 20 mM Tris-HCl buffer containing 150 mM NaCl (pH = 7.4) (1/1, v/v)
Procedure: The ligand (2.0 mg) is dissolved in 2 ml of 1-octanol then 2 ml of 20 mM Tris-HCl buffer, pH=7.4 containing 150 mM NaCl are added. After mixing in a vortex for 3 min at ambient temperature, followed by centrifugation for 5 min at 9,000 rpm, the concentration of the ligand in each phase is determined by UV-visible spectrophotometry. The 1-octanol fractions are thus redivided until reproducible values of coefficient of division of obtained. This coefficient is expressed as the decimal logarithm of [(the concentration of ligand contained in the 1-octanol phase)/(the concentration of ligand contained in the buffered aqueous phase)]=log D7.4. Measurements were taken three times.

[9] = Competition reaction between ligand (Ls), ZnCl2 and competing chelator (Lc), UV-visible; affinity constants; type: binding; conditions: Ls/ZnCl2/Lc 1/1/1 at 15 μM; solvent per ligand as in Table 3
Procedure: An organic solvent (CH3OH, dioxane or DMSO) was added in order to achieve good solubility of all the ligands and metal complexes in the concentrations used in these experiments.
As the concentration [MLs]=x % of C is measured on the UV-visible spectra, the concentrations [Ls]=(1−x) % of C, [MLc]=(1−x) % of C and [Lc]=x % of C can be deduced therefrom and:
In these conditions, [MLs]=[MLc]; [MLs]+[Lc]=Y, y≧50 and:
When log Ks 6, these equations are not used since the percentages of metal ion which is free in the solution or chelated by the solvent or the buffer are not negligible.

[10] = 25° C., cited from earlier work; for log K2 (stability constant for the M(Lc)2 species), Cu(II): ionic strength 0.1-0.2; for log K1 (stability constant for the MLc species), Cu(II): ionic strength 0.1-0.2, metal ion to chelator 1/1
[11] = Stability constants of competing chelators for Cu(II) (NIST / Sillen-Martell; log Kapp by Eq. 1-2); type: binding; conditions: at pH = 7.4, by Eq. 1 and 2
Excerpt: Department of Commerce) and […]

[12] = Ls/CuCl2/Lc 1/1/1 at 15 μM, solvent per ligand as in Table 3
[13] = mixture of Ls (15 μM, 1 equivalent) and CuCl2 (1/1, mol/mol)

T2 sequence (P05067 672-713 limits assumed, one chain of several): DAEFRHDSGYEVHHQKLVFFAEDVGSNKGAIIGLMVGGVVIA
T1 sequence (P05067 672-713): as the sequence (P05067 672-713 limits assumed, one chain of several) above

Structure (SMILES)	CuCl2 % soluble Aβ (Aβ1-42)	FeCl3 % soluble Aβ (Aβ1-42)	ZnCl2 % soluble Aβ (Aβ1-42)	without metal % soluble Aβ (Aβ1-42)	percentage of the CuLs species at equilibrium, competing ligand EDTA [3, 12]	Complex observed by titration with Zn^II (observed L/Zn(II) stoichiometry) [4]	Complex observed by titration with Cu^II (observed L/Cu(II) stoichiometry) [5]	amount of H2O2, without Aβ1-42 [6]	amount of H2O2, 0.2 μM Aβ1-42 Cu/Aβ = 2 [7]	amount of H2O2, 0.5 μM Aβ1-42 Cu/Aβ = 0.75 [7]	percentage of ZnLs species at equilibrium, competing ligand EDTA [9]	log K2 (stability constant for the M(Lc)2 species), Cu(II) [10]	log K1 app, Cu(II) [11]	further results
c1cnc2c(c1)ccc1cccnc12 [1,10-phenanthroline]														number of ZnCl2 equivalent for 15 μM of ligand to be entirely in the form of Zn(II) complex [1]: 50 eq ZnCl2; log Kapp of comparison chelators for Zn(II) [2]: 6.3
Oc1cccc2ccc(CCc3ccc4cccc(O)c4n3)nc12 [Compound 7, 2,2′-(1,2-Ethanediyl)-bis(8-hydroxyquinoline)]	35%	40%	60%	59%	55%	LZn^II(1/1)	LCu^II(1/1)	0.75 nmol	0.89 ± 0.07 nmol	0.68 nmol	55%			number of Lc equivalents making it possible to form 50% of CuLs, Lc = EDTA [3, 13]: 1.1 eq; H2O2 production as a function of the Cu/Aβ1-42 ratio ([7]; FIG. 11, 1 equivalent of ligand per Cu(II) (0.4 μM), Aβ1-42 0.2 to 0.53 μM): virtually inhibit H2O2 production; logD at 3 min [8]: 3.5 ± 0.1
Oc1ccc(Cl)c2ccc(CCc3ccc4c(Cl)ccc(O)c4n3)nc12 [Compound 8, 2,2′-(1.2-Ethanediyl)-bis(5-chloro-8-hydroxyquinoline 8)]	36%	41%	58%	59%	40%	LZn^II(1/1)	LCu^II(1/1)	0.66 nmol	0.89 ± 0.09 nmol	0.64 nmol	30%			number of Lc equivalents making it possible to form 50% of CuLs, Lc = EDTA [3, 13]: 0.65 eq; log D7.4 [8]: 4.2 ± 0.1
Oc1c(I)cc(Cl)c2ccc(CCc3ccc4c(Cl)cc(I)c(O)c4n3)nc12 [Compound 9, 2,2′-(1,2-Ethanediyl)-bis(5-chloro-7-iodo-8-hydroxyquinoline)]	19%	38%	47%	36%	60%	LZn^II(1/1)	LCu^II(1/1)	0.66 nmol	0.82 ± 0.08 nmol	0.82 nmol	65%			percentage of the CuLs species at equilibrium, competing ligand Dien [3, 12]: 100%; percentage of the CuLs species at equilibrium, competing ligand Tetren [3, 12]: 0%; percentage of the CuLs species at equilibrium, competing ligand Trien [3, 12]: 45%; number of Lc equivalents making it possible to form 50% of CuLs, Lc = Trien [3, 13]: 0.75 eq; logD at 3 min [8]: 5.6 ± 0.5; percentage of ZnLs species at equilibrium, competing ligand NTA [9]: 100%; percentage of ZnLs species at equilibrium, competing ligand Trien [9]: 100%
NCCNCCN [Dien, diethylenetriamine]												5.0	11.8	
NCCN [EDA, ethylenediamine]												9.1	7.8	
O=C(O)CN(CCOCCOCCN(CC(=O)O)CC(=O)O)CC(=O)O [EGTA, ethylenebis(oxyethylenenitrilo)-tetraacetic acid]														log K1 app, Zn(II) ([2]; at pH = 7.4, by Eq. 1 and 2): 9.4
O=C(O)CN(CCO)CC(=O)O [HIDA, N-(2-hydroethyl)iminodiacetic acid]													10.5	log K1 (stability constant for the MLc species), Cu(II) [10]: 11.8
c1ccc(-c2ccccn2)nc1 [biPy, 2,2′-bipyridine]												5.5	8.1	log K1 (stability constant for the MLc species), Cu(II) [10]: 8.1; number of ZnCl2 equivalent for 15 μM of ligand to be entirely in the form of Zn(II) complex [1]: 250 eq ZnCl2; log Kapp of comparison chelators for Zn(II) [2]: ≈ 5
